Experimental data: US20120245137A1 (Zalicus Pharmaceuticals Ltd., priority 2009, published 2012)
Where two headings read alike, the source gives them in different places.

Assays:
Type in all cases: cell-based
T-type calcium channel = T-type calcium channel (Homo sapiens, UniProt O95180); assay: T-type channel blocking, FLIPR data (Table 6)
Text: Another method, high-throughput spectrophotometric assay, utilizes loading of the cell lines with a fluorescent dye sensitive to intracellular calcium concentration and subsequent examination of the effects of compounds on the ability of depolarization by potassium chloride or other means to alter intracellular calcium levels.

Human Cav 2.2 channels = Human Cav 2.2 channels (Homo sapiens, UniProt Q00975); assay: Fluorescent assay for CaV2.2 channels using potassium depolarization (VIPR/FLIPR); details: FLIPR data
Text: Human Cav 2.2 channels were stably expressed in HEK293 cells along with alpha2-delta and beta subunits of voltage-gated calcium channels. An inwardly rectifying potassium channel (Kir2.3) was also expressed in these cells to allow more precise control of the cell membrane potential by extracellular potassium concentration. At low bath potassium concentration, the membrane potential is relatively negative, and is depolarized as the bath potassium concentration is raised. In this way, the bath potassium concentration can be used to regulate the voltage-dependent conformations of the channels. […] After the incubation period, Cav2.2 channel opening is triggered by addition of higher concentration of potassium (70 mM final concentration) to further depolarize the cell. The degree of state-dependent block can be estimated from the inhibitory potency of compounds after incubation in different potassium concentrations.
Calcium influx through Cav 2.2 channels is determined using a calcium sensitive fluorescent dye in combination with a fluorescent plate reader. Fluorescent changes were measured with either a VIPR (Aurora Instruments) or FLIPR (Molecular Devices) plate reader.
1. Seed cells in Poly-D-Lysine Coated 96 or 384-well plate and keep in a 3rC-IO % C02 incubator overnight.
2. Remove media, wash cells with 0.2 mL (96-well plate) or 0.05 mL (384-well plate) Dulbecco's Phosphate Buffered Saline (D-PBS) with calcium & magnesium (Invitrogen; 14040).
3. Add 0.1 mL (96-well plate) or 0.05 mL (384-well plate) of 4˜M fluor-4 (Molecular Probes; F-14202) and 0.02% Pluronic acid (Molecular Probes; P-3(00) prepared in D-PBS with calcium & magnesium (Invitrogen; 14040) supplemented with 10 mM Glucose & 10 mM HepeslNaOH; pH 7.4.
4. Incubate in the dark at 25° C. for 60-70 min.
5. Remove dye, wash cells with 0.1 mL (96-well plate) or 0.06 mL (384-well plate) of 4, 12, 25, or 30 mM Potassium Pre-polarization Buffer (PPB).
6. Add 0.1 mL (96-well plate) or 0.03 mL (384-well plate) of 4, 12, 25, 30 mM PPB with or without test compound.
7. Incubate in the dark at 25° C. for 30 min
8. Read cell plate on VIPR instrument, Excitation=480 nm, Emission=535 nm.
9. With VIPR continuously reading, add 0.1 mL (96-well plate) or 0.03 mL (384-well plate) of Depolarization Buffer (DB), which is 2× the final assay concentration, to the cell plate.

CAv1.2 = CAv1.2 (Homo sapiens, UniProt Q13936); assay: FLIPR data, CAv1.2 channel blocking (Table 6)
[1] = CAv3.2, inactivated state, read-out: CAv3.2 IC50 Inact.
[2] = closed state, read-out: CAv2.2 IC50 Closed
[3] = inactivated state, read-out: CAv2.2 IC50 Inact.
[4] = closed state, read-out: CAv1.2 IC50 Closed
[5] = inactivated state, read-out: CAv1.2 IC50 Inact.
[6] = CAv3.2, closed state, read-out: CAv3.2 IC50 Closed
[7] = CAv3.2, ratio closed/inactivated IC50

Human Cav 2.2 channels, sequence (Q00975 whole entry): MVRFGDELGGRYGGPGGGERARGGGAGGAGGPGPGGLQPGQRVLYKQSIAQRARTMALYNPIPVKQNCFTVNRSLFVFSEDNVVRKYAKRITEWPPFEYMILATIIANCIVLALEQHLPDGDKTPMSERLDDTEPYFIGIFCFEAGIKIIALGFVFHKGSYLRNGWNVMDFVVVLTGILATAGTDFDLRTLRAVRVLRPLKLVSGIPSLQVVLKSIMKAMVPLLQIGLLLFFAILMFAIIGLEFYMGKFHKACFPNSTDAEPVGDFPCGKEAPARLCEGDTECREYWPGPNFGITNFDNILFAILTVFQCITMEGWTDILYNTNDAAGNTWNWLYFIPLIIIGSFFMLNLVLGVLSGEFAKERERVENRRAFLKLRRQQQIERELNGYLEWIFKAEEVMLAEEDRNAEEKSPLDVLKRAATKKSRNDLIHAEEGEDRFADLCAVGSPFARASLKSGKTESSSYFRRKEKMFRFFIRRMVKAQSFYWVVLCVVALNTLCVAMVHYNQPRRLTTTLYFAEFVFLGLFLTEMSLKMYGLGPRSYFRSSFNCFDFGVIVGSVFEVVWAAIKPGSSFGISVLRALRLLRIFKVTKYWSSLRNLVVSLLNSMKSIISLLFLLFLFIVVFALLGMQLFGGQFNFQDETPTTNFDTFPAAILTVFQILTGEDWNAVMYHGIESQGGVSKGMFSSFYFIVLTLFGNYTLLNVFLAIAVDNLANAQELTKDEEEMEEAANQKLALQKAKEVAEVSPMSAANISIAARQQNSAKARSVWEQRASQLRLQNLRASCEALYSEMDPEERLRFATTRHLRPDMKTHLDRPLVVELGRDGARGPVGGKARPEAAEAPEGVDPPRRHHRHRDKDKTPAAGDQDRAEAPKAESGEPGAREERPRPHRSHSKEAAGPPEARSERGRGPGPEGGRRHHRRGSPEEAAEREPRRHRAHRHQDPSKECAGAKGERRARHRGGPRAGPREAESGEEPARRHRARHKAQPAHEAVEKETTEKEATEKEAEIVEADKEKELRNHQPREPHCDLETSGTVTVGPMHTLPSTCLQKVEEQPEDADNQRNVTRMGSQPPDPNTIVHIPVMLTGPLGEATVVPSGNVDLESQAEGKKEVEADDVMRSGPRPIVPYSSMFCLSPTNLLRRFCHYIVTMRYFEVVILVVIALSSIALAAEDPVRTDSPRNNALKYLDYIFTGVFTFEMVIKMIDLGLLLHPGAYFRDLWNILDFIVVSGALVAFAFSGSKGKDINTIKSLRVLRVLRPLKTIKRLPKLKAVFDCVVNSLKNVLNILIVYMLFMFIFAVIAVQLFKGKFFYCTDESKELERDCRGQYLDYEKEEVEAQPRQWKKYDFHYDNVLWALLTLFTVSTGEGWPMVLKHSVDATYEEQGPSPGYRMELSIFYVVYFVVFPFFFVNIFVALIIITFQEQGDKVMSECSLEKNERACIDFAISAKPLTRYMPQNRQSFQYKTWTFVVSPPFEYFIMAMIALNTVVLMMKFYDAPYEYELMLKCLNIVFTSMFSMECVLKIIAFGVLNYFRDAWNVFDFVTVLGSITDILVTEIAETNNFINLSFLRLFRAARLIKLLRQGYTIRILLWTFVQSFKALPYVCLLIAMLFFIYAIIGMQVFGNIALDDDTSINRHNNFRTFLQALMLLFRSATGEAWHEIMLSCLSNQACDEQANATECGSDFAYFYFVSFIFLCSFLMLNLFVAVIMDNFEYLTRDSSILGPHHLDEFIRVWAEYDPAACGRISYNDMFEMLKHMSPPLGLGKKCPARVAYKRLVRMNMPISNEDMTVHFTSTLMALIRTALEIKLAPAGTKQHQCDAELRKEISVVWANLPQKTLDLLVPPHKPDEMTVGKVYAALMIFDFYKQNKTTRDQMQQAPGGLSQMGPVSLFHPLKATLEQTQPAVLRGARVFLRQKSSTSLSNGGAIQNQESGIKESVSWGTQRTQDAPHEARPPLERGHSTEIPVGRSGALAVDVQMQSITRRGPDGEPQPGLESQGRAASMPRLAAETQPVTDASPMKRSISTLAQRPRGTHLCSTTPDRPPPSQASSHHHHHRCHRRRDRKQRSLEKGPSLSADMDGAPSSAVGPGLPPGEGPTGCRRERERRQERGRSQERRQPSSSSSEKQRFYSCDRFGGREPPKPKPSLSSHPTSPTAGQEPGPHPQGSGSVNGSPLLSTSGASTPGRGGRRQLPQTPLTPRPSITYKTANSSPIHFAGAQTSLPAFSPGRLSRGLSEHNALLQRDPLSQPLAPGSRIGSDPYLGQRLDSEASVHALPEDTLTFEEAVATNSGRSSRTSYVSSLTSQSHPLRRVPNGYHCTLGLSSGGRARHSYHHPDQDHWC
Human Cav 2.2 channels, sequence (P54289 25-1103 partner): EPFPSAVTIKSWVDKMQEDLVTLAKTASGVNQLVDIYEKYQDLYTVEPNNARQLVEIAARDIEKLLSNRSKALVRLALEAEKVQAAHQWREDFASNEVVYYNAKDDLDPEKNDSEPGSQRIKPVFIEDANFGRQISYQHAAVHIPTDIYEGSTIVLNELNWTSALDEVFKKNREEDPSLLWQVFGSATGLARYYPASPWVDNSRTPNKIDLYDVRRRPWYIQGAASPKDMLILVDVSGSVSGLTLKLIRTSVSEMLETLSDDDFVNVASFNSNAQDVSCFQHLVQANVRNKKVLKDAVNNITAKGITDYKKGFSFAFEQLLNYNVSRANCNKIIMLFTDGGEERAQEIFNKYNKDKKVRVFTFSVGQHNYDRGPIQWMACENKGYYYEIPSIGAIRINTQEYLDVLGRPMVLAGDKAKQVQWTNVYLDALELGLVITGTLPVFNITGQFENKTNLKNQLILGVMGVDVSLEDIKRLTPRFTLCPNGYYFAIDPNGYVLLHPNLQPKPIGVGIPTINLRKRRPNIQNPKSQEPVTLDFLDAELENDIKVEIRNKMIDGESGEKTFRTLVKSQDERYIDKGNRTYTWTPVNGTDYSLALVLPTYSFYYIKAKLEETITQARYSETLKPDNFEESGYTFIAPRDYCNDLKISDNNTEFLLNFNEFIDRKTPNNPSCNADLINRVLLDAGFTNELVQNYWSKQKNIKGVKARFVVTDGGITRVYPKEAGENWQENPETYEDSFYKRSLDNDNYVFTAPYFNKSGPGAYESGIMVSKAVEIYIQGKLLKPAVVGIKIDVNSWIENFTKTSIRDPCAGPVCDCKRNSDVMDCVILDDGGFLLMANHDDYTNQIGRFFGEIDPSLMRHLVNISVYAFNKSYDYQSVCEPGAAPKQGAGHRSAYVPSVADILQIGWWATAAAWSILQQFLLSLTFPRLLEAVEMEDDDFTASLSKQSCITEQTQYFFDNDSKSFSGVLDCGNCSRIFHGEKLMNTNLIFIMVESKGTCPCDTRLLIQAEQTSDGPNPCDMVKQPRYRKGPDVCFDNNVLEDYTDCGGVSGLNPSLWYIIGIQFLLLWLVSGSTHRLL
Human Cav 2.2 channels, sequence (P54284 whole entry partner): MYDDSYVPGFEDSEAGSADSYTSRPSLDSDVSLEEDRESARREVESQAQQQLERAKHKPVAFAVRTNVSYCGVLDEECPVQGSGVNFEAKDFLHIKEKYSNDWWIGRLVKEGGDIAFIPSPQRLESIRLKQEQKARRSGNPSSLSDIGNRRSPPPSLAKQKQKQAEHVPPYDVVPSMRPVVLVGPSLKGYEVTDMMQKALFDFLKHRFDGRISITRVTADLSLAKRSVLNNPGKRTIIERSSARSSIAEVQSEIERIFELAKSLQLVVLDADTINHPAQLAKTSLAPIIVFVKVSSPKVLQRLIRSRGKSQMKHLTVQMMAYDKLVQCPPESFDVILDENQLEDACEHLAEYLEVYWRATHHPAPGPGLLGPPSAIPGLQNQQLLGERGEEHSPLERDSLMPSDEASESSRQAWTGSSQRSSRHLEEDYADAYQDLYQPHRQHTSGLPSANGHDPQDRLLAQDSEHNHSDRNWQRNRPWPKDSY

| SMILES | IC50 (T-type calcium channel; [1]) [µM] | IC50 (Human Cav 2.2 channels; [2]) [µM] | IC50 (Human Cav 2.2 channels; [3]) [µM] | CAv2.2 IC50 Ratio closed/inact. (Human Cav 2.2 channels; ratio closed/inactivated IC50) | IC50 (CAv1.2; [4]) [µM] | IC50 (CAv1.2; [5]) [µM] | IC50 (T-type calcium channel; [6]) [µM] | CAv3.2 IC50 Ratio closed/inact. (T-type calcium channel; [7]) | CAv2.2 IC50 Ratio closed/inact. (Human Cav 2.2 channels; ratio closed/inact.) | CAv3.2 IC50 Ratio closed/inact. (T-type calcium channel; CAv3.2, ratio closed/inact.) |
| --- | --- | --- | --- | --- | --- | --- | --- | --- | --- | --- |
| N[C@@H]1CCCC[C@@H]1C(=O)NC[C@H]1C[C@H](S(=O)(=O)c2cccc(OC(F)(F)F)c2)C1 (single isomer, unassigned) [Compound 700] | 10 | 3.55 | 1.25 | 2.8 | – | – | – | – | – | – |
| N[C@@H]1CCCC[C@@H]1C(=O)NC[C@H]1C[C@H](S(=O)(=O)c2cc(F)cc(C(F)(F)F)c2)C1 (single isomer, unassigned) [Compound 707] | 10 | 10 | – | – | – | – | – | – | – | – |
| O=C(NC[C@H]1C[C@H](S(=O)(=O)c2cccc(C(F)(F)F)c2)C1)c1ccc(Cl)cn1 [Compound 573] | 5.83 | 3.24 | 0.43 | 7.5 | ≥ 10 | ≥ 10 | 8.12 | 1.4 | – | – |
| O=C(NC[C@H]1C[C@H](S(=O)(=O)c2cccc(C(F)(F)F)c2)C1)c1ncc(C(F)(F)F)cn1 [Compound 574] | – | 10 | 1.29 | 7.8 | – | – | – | – | – | – |
| CC(C)([C@H]1C[C@@H](NC(=O)c2ccc(S(C)(=O)=O)cc2Cl)C1)S(=O)(=O)c1cccc(C(F)(F)F)c1 [Compound 577] | – | 10 | 0.64 | 15.6 | ≥ 10 | ≥ 10 | – | – | – | – |
| CC(C)([C@H]1C[C@@H](NC(=O)c2ncc(C(F)(F)F)cn2)C1)S(=O)(=O)c1cccc(C(F)(F)F)c1 [Compound 583] | 10 | 10 | 1.12 | 8.9 | ≥ 10 | – | – | – | – | – |
| CC(C)([C@H]1C[C@@H](NC(=O)c2ccc(C(F)(F)F)cc2S(C)(=O)=O)C1)S(=O)(=O)c1cc(F)cc(C(F)(F)F)c1 [Compound 585] | 10 | 10 | 1.08 | 9.3 | – | ≥ 10 | ≥ 10 | 1 | – | – |
| CC(C)([C@H]1C[C@@H](NC(=O)c2ccnc(C(F)(F)F)n2)C1)S(=O)(=O)c1cc(F)cc(C(F)(F)F)c1 [Compound 588] | 3.27 | 5.86 | 0.95 | 6.2 | ≥ 10 | ≥ 10 | ≥ 10 | 3.1 | – | – |
| CC(C)([C@H]1C[C@H](NC(=O)c2ccc(C(F)(F)F)cc2S(C)(=O)=O)C1)S(=O)(=O)c1cc(F)cc(C(F)(F)F)c1 [Compound 592] | 10 | 10 | 0.46 | 21.7 | ≥ 10 | ≥ 10 | ≥ 10 | 1 | – | – |
| Cc1nc(S(=O)(=O)N[C@H]2C[C@@H](C(C)(C)S(=O)(=O)c3cc(F)cc(C(F)(F)F)c3)C2)cn1C [Compound 604] | – | 10 | 4.38 | 2.3 | ≥ 10 | ≥ 10 | ≥ 10 | – | – | – |
| Cc1nc(S(=O)(=O)N[C@H]2C[C@@H](C(C)(C)S(=O)(=O)c3cccc(C(F)(F)F)c3)C2)cn1C [Compound 631] | – | – | 6.9 | 1.4 | – | – | – | – | – | – |
| CC(C)([C@H]1C[C@@H](NC(=O)c2ncc(C(F)(F)F)cc2S(C)(=O)=O)C1)S(=O)(=O)c1cccc(OC(F)(F)F)c1 [Compound 644] | 10 | 10 | 0.9 | 11.1 | – | ≥ 10 | ≥ 10 | 1 | – | – |
| CC(C)([C@H]1C[C@@H](NC(=O)CC2(N)CCCCC2)C1)S(=O)(=O)c1cccc(C(F)(F)F)c1 [Compound 652] | 10 | 8.87 | 1.19 | 7.5 | – | – | – | – | – | – |
| CC(C)([C@H]1C[C@H](NC(=O)CC2(N)CCCCC2)C1)S(=O)(=O)c1cc(F)cc(C(F)(F)F)c1 [Compound 654] | 10 | 8.47 | 1.44 | 5.9 | ≥ 10 | ≥ 10 | – | – | – | – |
| CC(C)([C@H]1C[C@@H](NC(=O)CC2(N)CCCCC2)C1)S(=O)(=O)c1cccc(OC(F)(F)F)c1 [Compound 655] | 10 | 6.52 | 1.16 | 5.6 | ≥ 10 | ≥ 10 | – | – | – | – |
| CC(C)([C@H]1C[C@H](NC(=O)CC2(N)CCCCC2)C1)S(=O)(=O)c1cccc(OC(F)(F)F)c1 [Compound 656] | 10 | 5.52 | 0.87 | 6.3 | ≥ 10 | ≥ 10 | – | – | – | – |
| CNC1(CC(=O)N[C@H]2C[C@@H](C(C)(C)S(=O)(=O)c3cccc(C(F)(F)F)c3)C2)CCCCC1 [Compound 657] | – | 9.32 | 2.15 | 4.3 | ≥ 10 | – | – | – | – | – |
| CNC1(CC(=O)N[C@H]2C[C@@H](C(C)(C)S(=O)(=O)c3cc(F)cc(C(F)(F)F)c3)C2)CCCCC1 [Compound 658] | 10 | 10 | 2.64 | 3.8 | ≥ 10 | – | ≥ 10 | 1 | – | – |
| Cc1nc(S(=O)(=O)N[C@H]2C[C@H](C(C)(C)S(=O)(=O)c3cccc(C(F)(F)F)c3)C2)cn1C [Compound 670] | – | 10 | 8.66 | 1.2 | – | – | – | – | – | – |
| CC(C)([C@H]1C[C@H](NC(=O)c2ncc(C(F)(F)F)cn2)C1)S(=O)(=O)c1cccc(C(F)(F)F)c1 [Compound 678] | – | 8.95 | 0.79 | 11.3 | – | – | – | – | – | – |
| CC(C)([C@H]1C[C@H](NC(=O)c2ccc(Cl)cc2S(C)(=O)=O)C1)S(=O)(=O)c1cccc(C(F)(F)F)c1 [Compound 679] | 10 | 10 | 0.48 | 20.8 | – | – | ≥ 10 | 1 | – | – |
| CC(C)([C@H]1C[C@H](NC(=O)c2ccc(S(C)(=O)=O)cc2Cl)C1)S(=O)(=O)c1cccc(C(F)(F)F)c1 [Compound 680] | 10 | 10 | 1.31 | 7.6 | – | – | ≥ 10 | 1 | – | – |
| N[C@H]1CCCC[C@@H]1C(=O)NC[C@H]1C[C@H](S(=O)(=O)c2cccc(OC(F)(F)F)c2)C1 [Compound 713] | 10 | – | – | – | – | – | – | – | – | – |
| CC(C)(C[C@H]1C[C@H](NC(=O)[C@H]2CCCC[C@H]2N)C1)S(=O)(=O)c1cccc(C(F)(F)F)c1 [Compound 742] | 10 | 3.36 | 1.05 | – | – | – | – | – | 3.2 | – |
| O=C(c1ccc(C(F)(F)F)cn1)N1CC(CS(=O)(=O)c2cc(F)cc(C(F)(F)F)c2)C1 [Compound 746] | 10 | – | ≥ 10 | – | – | – | ≥ 10 | – | – | 1 |
| O=C(NC[C@H]1C[C@H](S(=O)(=O)c2cccc(Cl)c2)C1)c1cnc(C(F)(F)F)nc1 [Compound 773] | 10 | – | 9.88 | – | – | – | ≥ 10 | – | 1 | 1 |
| NC1(CC(=O)NC[C@H]2C[C@H](S(=O)(=O)c3cccc(Cl)c3)C2)CCCCC1 [Compound 776] | 10 | 10 | 9.37 | – | – | – | – | – | 1.1 | – |
| N[C@@H]1CCCC[C@H]1C(=O)NC[C@H]1C[C@H](S(=O)(=O)c2cccc(Cl)c2)C1 [Compound 777] | 10 | 10 | ≥ 10 | – | – | – | – | – | 1 | – |
| N[C@H]1CCCC[C@H]1C(=O)NC[C@H]1C[C@H](S(=O)(=O)c2cccc(Cl)c2)C1 [Compound 778] | 10 | – | ≥ 10 | – | – | – | – | – | – | – |
